Source: publication PMC4167698, “Fatty Acid Esters of Phloridzin Induce Apoptosis of Human Liver Cancer Cells through Altered Gene Expression” (PLoS ONE, 2014)

Key:
HepG2 cells [1] = experiment: MTS cell proliferation assay, HepG2; assay type: cell-based, human; conditions: for SI (selective index): EC50 of HP-F cells/EC50 on HepG2, 24 h; for EC50: MTS
Procedure: (§1) Cell viability was determined by using the MTS assay. In brief, HepG2 cells (5×10^3 cells/100 µL/well), MDA-MB-231 (5×10^3 cells/100 µL/well), THP-1 (25×10^3/100 µL/well), normal human and rat hepatocytes (1×10^4 cells/100 µL/well) were plated in triplicate, in a 96 well sterile flat bottom tissue culture plates. […] Thereby, cells were exposed to various concentrations (0.1, 1, 10, 25, 50, 75, 100 µM) of each treatment. Controls consist of cells with media containing DMSO (<0.5%), test blank wells contained the test compound in media with no cells and blank wells contained media with no cells. After additional 3, 6, 12, 18 or 24 h, 20 µL of the MTS reagent in combination with the electron coupling agent, phenazine methosulfate were added to the wells and cells were incubated in a humidified incubator for 3 h. Absorbance at 490 nm (OD490) was measured by using a Flurostar Optima microplate reader (BMG Labtech, Cary, NC, USA) to obtain the number of viable cells relative to the control population. Percentage of viability of the test compound treated cells are expressed as percentage compared to control (<0.5% DMSO). […] The selective index (SI) of the fatty acid esters of phloridzin is defined as the ratio of cytotoxicity (EC50 values) on normal HP-F cells to solid cancer HepG2, MDA-MB-231 cells (SI = EC50 on HP-F cells/EC50 on solid cancer cells). Samples with SI values greater than three were considered to have high selectivity towards cancer cells.

MDA-MB-231 cells = experiment: MTS cell proliferation assay, MDA-MB-231; assay type: cell-based, human; conditions: for SI (selective index): EC50 of HP-F cells/EC50 on MDA-MB-231, 24 h; for EC50: MTS
Procedure: as §1

THP-1 cells = experiment: MTS cell proliferation assay, THP-1; assay type: cell-based, human; conditions: for EC50: MTS
Procedure: as §1

[2] = system: normal human hepatocytes (HP-F); experiment: MTS cell viability assay, normal human hepatocytes; assay type: cell-based; conditions: 24 h
Procedure: as §1

HepG2 cells [3] = experiment: Human cancer drug targets RT2 profiler PCR array; assay type: cell-based
Procedure: Total RNA extraction was performed using Arum Total RNA minikit (Bio-Rad, Hercules, CA, USA). RNA concentration and purity was determined by measuring the absorbance using a NanoDrop (NanoDrop Technologies, Wilmington, DE, USA). RNA integrity was assessed by formaldehyde agarose gel electrophoresis. RNA (400 ng) was used to synthesize cDNA using RT^2 First Strand kit (SABiosciences, Frederick, MD, USA). RT^2 RNA QC PCR arrays (SABiosciences, Frederick, MD, USA) was used to assess the quality of cDNA samples before characterization with the human cancer drug targets RT^2 profiler PCR array (SABiosciences, Frederick, MD, USA). Gene expression profiles of 84 genes were investigated using the human cancer drug targets RT^2 profiler PCR array (PAHS-507ZD) on a Bio-Rad CFX Connect (Bio-Rad, Hercules, CA, USA) using RT^2 real-time SYBR green PCR master mix (SABiosciences, Frederick, MD, USA). […] Reproducibility was maintained by using three biological replicates from three individual experiments.

HepG2 cells [4] = experiment: LDH release cytotoxicity assay; assay type: cell-based, human; conditions: HepG2, 100 µM, 6 h, relative to maximum release by 1% Triton X-100
Procedure: Lactate dehydrogenase (LDH) is a stable cytosolic enzyme that is released upon membrane damage in apoptotic/necrotic cells. LDH activity was measured using CytoTox 96 Non-Radioactive Cytotoxicity Assay (Promega, Madison, WI, USA), in which LDH released in culture supernatants is measured with a coupled enzymatic assay, resulting in conversion of a tetrazolium salt into a red formazan product. […] After centrifugation, the supernatant was removed to an assay plate, and the LDH released from the cells into culture medium was measured. The maximal release was obtained after treating control cells with 1% Triton X-100 for 30 min at room temperature. The apoptotic/necrotic percentage was expressed using the formula: (sample value/maximal release)×100%.

[5] = 84-gene array, vs vehicle control

SMILES: CC/C=C\C/C=C\C/C=C\C/C=C\C/C=C\C/C=C\CCC(=O)OC[C@H]1O[C@@H](Oc2cc(O)cc(O)c2C(=O)CCc2ccc(O)cc2)[C@H](O)[C@@H](O)[C@@H]1O [Pz-DHA ester, DHA ester of Pz]
- SI (selective index) (HepG2 cells [1]): 11.2
- EC50 (HepG2 cells [1]; HepG2, 3 h): 76.9 ± 5.8 µM
- EC50 (HepG2 cells [1]; HepG2, 6 h): 64.4 ± 5.9 µM
- EC50 (HepG2 cells [1]; HepG2, 12 h): 56.2 ± 4.9 µM
- EC50 (HepG2 cells [1]; HepG2, 18 h): 54.2 ± 3.9 µM
- EC50 (HepG2 cells [1]; HepG2, 24 h): 51.9 ± 3.8 µM
- SI (selective index) (MDA-MB-231 cells): 10.5
- EC50 (MDA-MB-231 cells; MDA-MB-231, 3 h): 132 ± 9.9 µM
- EC50 (MDA-MB-231 cells; MDA-MB-231, 6 h): 83.7 ± 7.5 µM
- EC50 (MDA-MB-231 cells; MDA-MB-231, 12 h): 70.2 ± 6.1 µM
- EC50 (MDA-MB-231 cells; MDA-MB-231, 18 h): 62.6 ± 5.1 µM
- EC50 (MDA-MB-231 cells; MDA-MB-231, 24 h): 55.5 ± 4.5 µM
- SI (selective index) (THP-1 cells; EC50 of HP-F cells/EC50 on THP-1, 24 h): 21.3
- EC50 (THP-1 cells; THP-1, 3 h): 65.8 ± 5.2 µM
- EC50 (THP-1 cells; THP-1, 6 h): 49.5 ± 3.8 µM
- EC50 (THP-1 cells; THP-1, 12 h): 42.7 ± 3 µM
- EC50 (THP-1 cells; THP-1, 18 h): 35.8 ± 2.8 µM
- EC50 (THP-1 cells; THP-1, 24 h): 27.3 ± 1.2 µM
- EC50 [2]: > 100 µM
- number of genes down-regulated (more than two-fold) (HepG2 cells [3]; [5]): 41 genes
- number of genes unaffected (HepG2 cells [3]; [5]): 35 genes
- number of genes up-regulated (more than two-fold) (HepG2 cells [3]; [5]): 8 genes
- Fold change of gene expression relative to control: BCL2 (HepG2 cells [3]; Apoptosis gene, RT-PCR array): −2.8 fold
- Fold change of gene expression relative to control: AKT1 (HepG2 cells [3]; RT-PCR array): −6.1 fold
- Fold change of gene expression relative to control: AKT2 (HepG2 cells [3]; RT-PCR array): −2.8 fold
- Fold change of gene expression relative to control: AURKB (HepG2 cells [3]; RT-PCR array): −2.0 fold
- Fold change of gene expression relative to control: CDK2 (HepG2 cells [3]; RT-PCR array): −2.0 fold
- Fold change of gene expression relative to control: CDK9 (HepG2 cells [3]; RT-PCR array): −2.1 fold
- Fold change of gene expression relative to control: EGFR (HepG2 cells [3]; RT-PCR array): −8.9 fold
- Fold change of gene expression relative to control: ERBB2 (HepG2 cells [3]; RT-PCR array): −5.7 fold
- Fold change of gene expression relative to control: ERBB3 (HepG2 cells [3]; RT-PCR array): −6.1 fold
- Fold change of gene expression relative to control: FLT1 (HepG2 cells [3]; RT-PCR array): 16.5 fold
- Fold change of gene expression relative to control: GRB2 (HepG2 cells [3]; RT-PCR array): −8.6 fold
- Fold change of gene expression relative to control: HDAC1 (HepG2 cells [3]; RT-PCR array): −2.6 fold
- Fold change of gene expression relative to control: HDAC4 (HepG2 cells [3]; RT-PCR array): −4.1 fold
- Fold change of gene expression relative to control: HDAC6 (HepG2 cells [3]; RT-PCR array): −5.4 fold
- Fold change of gene expression relative to control: HDAC7 (HepG2 cells [3]; RT-PCR array): −6.0 fold
- Fold change of gene expression relative to control: HDAC11 (HepG2 cells [3]; RT-PCR array): −20.1 fold
- Fold change of gene expression relative to control: IGF1R (HepG2 cells [3]; RT-PCR array): −4.2 fold
- Fold change of gene expression relative to control: IGF2 (HepG2 cells [3]; RT-PCR array): −2.3 fold
- Fold change of gene expression relative to control: IRF5 (HepG2 cells [3]; RT-PCR array): −2.3 fold
- Fold change of gene expression relative to control: KDR (HepG2 cells [3]; RT-PCR array): −2.8 fold
- Fold change of gene expression relative to control: KRAS (HepG2 cells [3]; RT-PCR array): −4.0 fold
- Fold change of gene expression relative to control: MDM4 (HepG2 cells [3]; RT-PCR array): −2.1 fold
- Fold change of gene expression relative to control: NF−κB (HepG2 cells [3]; RT-PCR array): −4.3 fold
- Fold change of gene expression relative to control: PARP1 (HepG2 cells [3]; RT-PCR array): −5.4 fold
- Fold change of gene expression relative to control: PDGFRA (HepG2 cells [3]; RT-PCR array): −2.8 fold
- Fold change of gene expression relative to control: PDGFRB (HepG2 cells [3]; RT-PCR array): −16.8 fold
- Fold change of gene expression relative to control: PIK3C2A (HepG2 cells [3]; RT-PCR array): −2.2 fold
- Fold change of gene expression relative to control: PLK1 (HepG2 cells [3]; RT-PCR array): −2.9 fold
- Fold change of gene expression relative to control: PRKCA (HepG2 cells [3]; RT-PCR array): −8.1 fold
- Fold change of gene expression relative to control: PRKCD (HepG2 cells [3]; RT-PCR array): −2.1 fold
- Fold change of gene expression relative to control: PRKCE (HepG2 cells [3]; RT-PCR array): −5.6 fold
- Fold change of gene expression relative to control: TERT (HepG2 cells [3]; RT-PCR array): −5.6 fold
- Fold change of gene expression relative to control: TOP2A (HepG2 cells [3]; RT-PCR array): −2.7 fold
- Fold change of gene expression relative to control: TOP2B (HepG2 cells [3]; RT-PCR array): −2.3 fold
- Fold change of gene expression relative to control: TP53 (HepG2 cells [3]; RT-PCR array): −7.4 fold
- Fold change of gene expression relative to control: mTOR (HepG2 cells [3]; RT-PCR array): −3.6 fold
- Fold change of gene expression relative to control: FLT1 (HepG2 cells [3]; RT-PCR array, listed as Phloridzin-DHA): +16.5 fold

SMILES: CC/C=C\C/C=C\C/C=C\C/C=C\C/C=C\CCCC(=O)OC[C@H]1O[C@@H](Oc2cc(O)cc(O)c2C(=O)CCc2ccc(O)cc2)[C@H](O)[C@@H](O)[C@@H]1O [Pz-EPA ester, eicosapentaenoic acid ester (EPA) of Pz]
- SI (selective index) (HepG2 cells [1]): 7.4
- EC50 (HepG2 cells [1]; HepG2, 3 h): 39.4 ± 2.8 µM
- EC50 (HepG2 cells [1]; HepG2, 6 h): 37.8 ± 1.9 µM
- EC50 (HepG2 cells [1]; HepG2, 12 h): 36 ± 2.1 µM
- EC50 (HepG2 cells [1]; HepG2, 18 h): 33.1 ± 2.4 µM
- EC50 (HepG2 cells [1]; HepG2, 24 h): 26.8 ± 1.8 µM
- SI (selective index) (MDA-MB-231 cells): 7.5
- EC50 (MDA-MB-231 cells; MDA-MB-231, 3 h): 37.9 ± 2.2 µM
- EC50 (MDA-MB-231 cells; MDA-MB-231, 6 h): 33.6 ± 1.8 µM
- EC50 (MDA-MB-231 cells; MDA-MB-231, 12 h): 32.6 ± 1.8 µM
- EC50 (MDA-MB-231 cells; MDA-MB-231, 18 h): 31.5 ± 2.3 µM
- EC50 (MDA-MB-231 cells; MDA-MB-231, 24 h): 26.5 ± 1.1 µM
- EC50 (THP-1 cells; THP-1, 3 h): 27.9 ± 1.5 µM
- EC50 (THP-1 cells; THP-1, 6 h): 19.9 ± 1.1 µM
- EC50 (THP-1 cells; THP-1, 12 h): 17 ± 0.6 µM
- EC50 (THP-1 cells; THP-1, 18 h): 15.8 ± 0.8 µM
- EC50 (THP-1 cells; THP-1, 24 h): 14.8 ± 0.6 µM
- EC50 [2]: > 100 µM
- LDH release (HepG2 cells [4]): 82.7±1.5%
